According to ChEMBL document CHEMBL1201862, “PubChem BioAssay data set” (2004):
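Where inhibition never reached the appropriate level, the endpoint shown equals the highest concentration tested. Otherwise, values were interpolated linearly from a five-concentration, 48-hour dose response in 96-well plates. GI50 marks 50% less growth.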 Activity calls are given as the source filed them. Rule as the data show it: active = GI50 up to about 1.1 µM and inactive = higher.

Key:
Experiment in all cases: DTP human tumour cell line panel, 48 h
HL-60 = test system: HL-60
NCI/ADR-RES = test system: NCI/ADR-RES
T47D = test system: T47D
UO-31 = test system: UO-31
HT-29 = test system: HT-29
MOLT-4 = test system: MOLT-4
MDA-MB-435 = test system: MDA-MB-435
SNB-19 = test system: SNB-19
EKVX = test system: EKVX
SF-539 = test system: SF-539
COLO 205 = test system: COLO 205
OVCAR-5 = test system: OVCAR-5
UACC-257 = test system: UACC-257
SNB-75 = test system: SNB-75
SK-MEL-2 = test system: SK-MEL-2
A498 = test system: A498
HOP-62 = test system: HOP-62
SF-268 = test system: SF-268
Hs-578T = test system: Hs-578T

Row | Structure (SMILES) | GI50 (HL-60) | GI50 (NCI/ADR-RES) | GI50 (T47D) | GI50 (UO-31) | GI50 (HT-29) | GI50 (MOLT-4) | GI50 (MDA-MB-435) | GI50 (SNB-19) | GI50 (EKVX) | GI50 (SF-539) | GI50 (COLO 205) | GI50 (OVCAR-5) | GI50 (UACC-257) | GI50 (SNB-75) | GI50 (SK-MEL-2) | GI50 (A498) | GI50 (HOP-62) | GI50 (SF-268) | GI50 (Hs-578T)
1 | Nc1c2ccccc2nc2c1ccc1ncccc12 | 4.32 µM (inactive) | 19.9 µM (inactive) | 27.5 µM (inactive) | 10.1 µM (inactive) | 11.5 µM (inactive) | 5.15 µM (inactive) | 27.8 µM (inactive) | 36.8 µM (inactive) | 27.1 µM (inactive) | 14.7 µM (inactive) | 20.3 µM (inactive) | 21.5 µM (inactive) | 28.8 µM (inactive) | 22.3 µM (inactive) | 18.6 µM (inactive) |  |  |  | 
2 | CC(=O)NCCCCN(CCCNC(C)=O)C(=O)CNS(=O)(=O)c1cccc2c(N(C)C)cccc12 | > 100 µM (inactive) |  | > 100 µM (inactive) | > 100 µM (inactive) | > 100 µM (inactive) | > 100 µM (inactive) | > 100 µM (inactive) | > 100 µM (inactive) | > 100 µM (inactive) | > 100 µM (inactive) | > 100 µM (inactive) | > 100 µM (inactive) | > 100 µM (inactive) |  | > 100 µM (inactive) | > 100 µM (inactive) | > 100 µM (inactive) | > 100 µM (inactive) | > 100 µM (inactive)
3 | CSc1ncc2c(n1)C(C#N)C1Sc3ccccc3N1C2=O (stereo unspecified) |  | > 100 µM (inactive) | > 100 µM (inactive) | > 100 µM (inactive) | > 100 µM (inactive) | > 100 µM (inactive) | > 100 µM (inactive) | 53.6 µM (inactive) | > 100 µM (inactive) | 37.3 µM (inactive) | > 100 µM (inactive) | > 100 µM (inactive) | > 100 µM (inactive) | 22.9 µM (inactive) |  | > 100 µM (inactive) | 37.5 µM (inactive) | 44.9 µM (inactive) | 
4 | COC(=O)c1sc(=O)sc1SCc1cccc(CSc2sc(=O)sc2C(=O)OC)c1 |  | 62.4 µM (inactive) | 38.9 µM (inactive) | 64.6 µM (inactive) | > 100 µM (inactive) | 47.6 µM (inactive) | 60.1 µM (inactive) | 22.3 µM (inactive) | 42.8 µM (inactive) |  | > 100 µM (inactive) | > 100 µM (inactive) | 70.5 µM (inactive) |  | 47.9 µM (inactive) | 36.1 µM (inactive) | 16 µM (inactive) | 27.3 µM (inactive) | 57.1 µM (inactive)
5 | O=C(O)c1cc(NC2=C(Cl)C(=O)c3c(O)ccc(O)c3C2=O)ccc1O |  | > 10 µM (inactive) | > 10 µM (inactive) | > 10 µM (inactive) | > 10 µM (inactive) | > 10 µM (inactive) | > 10 µM (inactive) | > 10 µM (inactive) | > 10 µM (inactive) | > 10 µM (inactive) | > 10 µM (inactive) | > 10 µM (inactive) | > 10 µM (inactive) | > 10 µM (inactive) |  | > 10 µM (inactive) | > 10 µM (inactive) | > 10 µM (inactive) | > 10 µM (inactive)
6 | CC(C)=CC(=O)c1[nH]c2ccccc2c1CC(=O)NCCc1cncn1C |  | > 100 µM (inactive) | 34.6 µM (inactive) | 21.4 µM (inactive) | 35.7 µM (inactive) | > 100 µM (inactive) | 47 µM (inactive) | 93.8 µM (inactive) | 25.8 µM (inactive) | 60.7 µM (inactive) | 21.9 µM (inactive) | > 100 µM (inactive) | 52.6 µM (inactive) | 52.4 µM (inactive) | > 100 µM (inactive) | 30 µM (inactive) |  | 61.8 µM (inactive) | 99.1 µM (inactive)
7 | BrC1=C(Br)C2(SCCS2)[C@H]2C[C@@H]1c1ccccc12 | 20.9 µM (inactive) | 61.5 µM (inactive) | 24.6 µM (inactive) | 29.4 µM (inactive) | 10.2 µM (inactive) | 13.9 µM (inactive) | 4.4 µM (inactive) | > 100 µM (inactive) | 36.9 µM (inactive) | 41.3 µM (inactive) | 29.4 µM (inactive) | > 100 µM (inactive) | 52.6 µM (inactive) | 16.2 µM (inactive) | 41.2 µM (inactive) | > 100 µM (inactive) | > 100 µM (inactive) | 63.7 µM (inactive) | 
8 | CCOC(=O)c1ccc(/N=C2/C(=S)N(c3ccc(C(=O)OCC)cc3)C(=N)N2/N=C/c2ccccc2)cc1 |  | 38.3 µM (inactive) | 2.77 µM (inactive) | 13.2 µM (inactive) | 18.4 µM (inactive) |  | > 10 µM (inactive) | 14.3 µM (inactive) | 27.1 µM (inactive) | 20.1 µM (inactive) | 5.06 µM (inactive) | 20 µM (inactive) | > 10 µM (inactive) |  | 26.1 µM (inactive) |  | > 10 µM (inactive) | 16.2 µM (inactive) | 47 µM (inactive)
9 | Cc1ccc(C)n2c1nc1ccc3ccccc3c12 | > 100 µM (inactive) | > 100 µM (inactive) | 45 µM (inactive) | 61 µM (inactive) | > 100 µM (inactive) | > 100 µM (inactive) | > 100 µM (inactive) | > 100 µM (inactive) | 27.9 µM (inactive) | > 100 µM (inactive) | > 100 µM (inactive) | > 100 µM (inactive) | > 100 µM (inactive) | 17.3 µM (inactive) |  |  | > 100 µM (inactive) | > 100 µM (inactive) | 49.9 µM (inactive)
10 | ClC1(Cl)C(c2ccccc2)C1c1ccccc1 (stereo unspecified) |  | 7.16 µM (inactive) | 34.6 µM (inactive) | 26.9 µM (inactive) |  | 26.7 µM (inactive) | 7.35 µM (inactive) | 25.9 µM (inactive) | 18.3 µM (inactive) |  | 36 µM (inactive) | 43.6 µM (inactive) | 30.7 µM (inactive) | 46 µM (inactive) | 13.8 µM (inactive) | 38.8 µM (inactive) | 23.2 µM (inactive) | 32.4 µM (inactive) | 20.7 µM (inactive)
11 | Cc1cc(S(=O)(=O)Nc2nc(N)nc(N3N=CCC3C)n2)c(S)cc1Cl (stereo unspecified) | > 10 µM (inactive) | > 10 µM (inactive) | > 10 µM (inactive) | > 10 µM (inactive) | > 10 µM (inactive) | > 10 µM (inactive) |  | > 10 µM (inactive) | > 10 µM (inactive) | > 10 µM (inactive) | > 10 µM (inactive) | > 10 µM (inactive) | > 10 µM (inactive) | > 10 µM (inactive) | > 10 µM (inactive) | > 10 µM (inactive) | > 10 µM (inactive) | > 10 µM (inactive) | > 10 µM (inactive)
12 | OCC(O)COCn1nncc1Cn1ncc2c(SCc3ccccc3)ncnc21 (stereo unspecified) |  | > 100 µM (inactive) | > 100 µM (inactive) | > 100 µM (inactive) | > 100 µM (inactive) |  | > 100 µM (inactive) | > 100 µM (inactive) | > 100 µM (inactive) | > 100 µM (inactive) | > 100 µM (inactive) | > 100 µM (inactive) | > 100 µM (inactive) |  | > 100 µM (inactive) | > 100 µM (inactive) | > 100 µM (inactive) | 14.5 µM (inactive) | 0.203 µM (active)
13 | CCCCCCCCCCCCCCCCCCNC(=S)N/C=C1\C(=O)Nc2ccccc2C1=O | 4.92 µM (inactive) | 18.4 µM (inactive) | 24.7 µM (inactive) | 15.5 µM (inactive) | 16.9 µM (inactive) | 12.7 µM (inactive) | 19.5 µM (inactive) | 17.3 µM (inactive) | 13.7 µM (inactive) | 19.7 µM (inactive) | 17.4 µM (inactive) | 15.4 µM (inactive) | 17.1 µM (inactive) | 13.2 µM (inactive) | 21.4 µM (inactive) | 21.4 µM (inactive) | 15.6 µM (inactive) | 13.6 µM (inactive) | 
14 | N=C(N)C1CN(CCc2c[nH]c3ccccc23)C(=O)NC1=O (stereo unspecified) | > 100 µM (inactive) | > 100 µM (inactive) | > 100 µM (inactive) | > 100 µM (inactive) | > 100 µM (inactive) | > 100 µM (inactive) | > 100 µM (inactive) | > 100 µM (inactive) | > 100 µM (inactive) |  | > 100 µM (inactive) | > 100 µM (inactive) | > 100 µM (inactive) | > 100 µM (inactive) |  | > 100 µM (inactive) | > 100 µM (inactive) | > 100 µM (inactive) | 
15 | O=[N+]([O-])c1ccc(CN(CCCl)OCCCl)cc1 | 40 µM (inactive) | > 100 µM (inactive) | 74.5 µM (inactive) | 37.8 µM (inactive) | > 100 µM (inactive) | 20.9 µM (inactive) | > 100 µM (inactive) | > 100 µM (inactive) | 92.7 µM (inactive) | > 100 µM (inactive) | > 100 µM (inactive) | > 100 µM (inactive) | 70.1 µM (inactive) | > 100 µM (inactive) | > 100 µM (inactive) |  | > 100 µM (inactive) | > 100 µM (inactive) | > 100 µM (inactive)
16 | COP1(=O)NCc2ncccc2O1 (stereo unspecified) |  | > 100 µM (inactive) | > 100 µM (inactive) | > 100 µM (inactive) | > 100 µM (inactive) | > 100 µM (inactive) | > 100 µM (inactive) | > 100 µM (inactive) | > 100 µM (inactive) | > 100 µM (inactive) | > 100 µM (inactive) | > 100 µM (inactive) | > 100 µM (inactive) | > 100 µM (inactive) | > 100 µM (inactive) | > 100 µM (inactive) | > 100 µM (inactive) |  | 
